Legend:
RsGluCl1 (T12) = test: Two-microelectrode voltage clamp of Xenopus oocytes injected with RsGluCl1 T12 RNA; type: cell-based, Rhipicephalus sanguineus; conditions: for channel activation / current in response (qualitative): RsGluCl1 expressed in Xenopus oocytes
Procedure: (§1) Xenopus laevis oocytes were prepared and injected using standard methods previously described [Arena, J. P., Liu, K. K., Paress, P. S. & Cully, D. P. Mol. Pharmacol. 40, 368-374 (1991); Arena, J. P., Liu, K. K., Paress, P. S., Schaeffer, J. M. & Cully, D. F., Mol. Brain. Res. 15, 339-348 (1992)]. Adult female Xenopus laevis were anesthetized with 0.17% tricaine methanesulfonate and the ovaries were surgically removed and placed in a solution consisting of (mM): NaCl 82.5, KCl 2, MgCl2 1, HEPES 5, NaPyruvate 2.5, Penicillin G. 100,000 units/L, Streptomycin Sulfate 1000 mg/L, pH 7.5 (Mod. OR-2). Ovarian lobes were broken open, rinsed several times in Mod. OR-2, and incubated in 0.2% collagenase (Sigma, Type1) in Mod. OR-2 at room temperature with gentle shaking. After 1 hour the collagenase solution was renewed and the oocytes were incubated for an additional 30-90 min until approximately 50% of the oocytes were released from the ovaries. Stage V and VI oocytes were selected and placed in media containing (mM): NaCl 96, KCl 2, MgCl2 1, CaCl2 1.8, HEPES 5, NaPyruvate 2.5, theophylline 0.5, gentamicin […], pH 7.5 (ND-96) for 16-24 hours before injection. Oocytes were injected with 50 nl of Dv8, Dv9, RsGluCl1 or RsGluCl2 RNA at a concentration of 0.2 mg/ml. Oocytes were incubated at 18° C. for 1-6 days in ND-96 before recording.
(§2) Recordings were made at room temperature in modified ND-96 consisting of (mM: NaCl 96, MgCl2 1, CaCl2 0.1, BaCl2 3.5, HEPES 5, pH 7.5. Oocytes were voltage clamped using a Dagan CA1 two microelectrode amplifier (Dagan Corporation, Minneapolis, Minn.) interfaced to a Macintosh 7100/80 computer. The current passing electrode was filled with 0.7 M KCl, 1.7 M KCitrate, and the voltage recording electrode was filled with 1 M KCl. Throughout the experiment oocytes were superfused with modified ND-96 (control solution) or with ND-96 containing potential channel activators and blockers at a rate of approximately 3 ml/min. Data were acquired at 100 Hz and filtered at 33.3 Hz using Pulse software from HEKA Elektronik (Lambrecht, Germany). All recordings were performed from a holding potential of either 0 or −30 mV.
cRNA was synthesized from the RsGluCl 1S clone T12 and expressed in Xenopus oocytes. The channel encoded by RsGluCl-1 is a glutamate-gated chloride channel activated by IVM-PO4.

RsGluCl2 = test: Two-microelectrode voltage clamp of Xenopus oocytes injected with RsGluCl2 RNA; type: cell-based, Rhipicephalus sanguineus; conditions: for channel activation / current in response (qualitative): RsGluCl2 expressed in Xenopus oocytes as a single functional channel
Procedure: as §1
as §2, with “All recordings were performed from a holding potential of either 0 or −30 mV.” left out

Compound	concentration at which current activation was maximal (RsGluCl1 (T12); RsGluCl1 T12 RNA in Xenopus oocytes, FIG. 10) [µM]	channel activation / current in response (qualitative) (RsGluCl1 (T12))	channel activation / current in response (qualitative) (RsGluCl2)	current produced on application (RsGluCl1 (T12); 100 nM, compared with the glutamate-activated current, RsGluCl1 T12 in Xenopus oocytes)	concentration at which current activation was maximal (RsGluCl2; RsGluCl2 expressed in Xenopus oocytes, FIG. 11) [µM]
N[C@@H](CCC(=O)O)C(=O)O [glutamate]	10	exhibits a current	failed to activate a current		
CC[C@H](C)[C@H]1O[C@]2(CC[C@@H]1C)C[C@@H]1C[C@@H](C/C=C(\C)[C@@H](O[C@H]3C[C@H](OC)[C@@H](O[C@H]4C[C@H](OC)[C@@H](O)[C@H](C)O4)[C@H](C)O3)[C@@H](C)/C=C/C=C3\CO[C@@H]4[C@H](O)C(C)=C[C@@H](C(=O)O1)[C@]34O)O2 [ivermectin, 22,23-dihydro-avermectin B1a]				produces a similar although non-inactivating current	~1
ivermectin phosphate		activated	exhibit a current		

— patent US7674586B2, “Methods of identifying modulators of L-glutamate-gated chloride channel proteins from Rhipicephalus sanguineus” (Merial Limited, priority 2000, dated 2010)
